Columns and labels:
[1] = test system: Plasmodium falciparum 3D7 strain; assay: antiplasmodial interaction assay, fixed-ratio combination isobologram method with artemisinin; type: cell-based; settings: n = 3
Protocol: Stock culture of malaria parasite P. falciparum 3D7 strain (chloroquine sensitive) was continuously maintained in vitro using a CO2 incubator under low-oxygen concentration (3%) and high carbon dioxide atmosphere (4%) along with nitrogen (93%), incubated at a temperature of 37°C. The parasites were maintained on O^+ human red blood cells suspended in a complete culture medium. Each litre of RPMI-1640 aqueous culture medium was prepared with 10.4 g of powdered RPMI-1640 (with glutamine but without sodium bicarbonate), 5.94 g of HEPES buffer, 1 g of dextrose and 40 mg of gentamicin. Complete medium was constituted just before use by adding sterile 5% sodium bicarbonate at the rate of 4 ml per 96 ml, and supplemented with 10% (v/v) pooled O^+ human serum. Infected erythrocytes were suspended in this culture media initiated at a haematocrit value of 5% and parasitemia was kept between 2 and 4% with sub-culturing done beyond 5%. Medium was changed once a day and percentage parasitemia was monitored using Giemsa stained slides.
Artemisinin (Sigma Aldrich, USA) was prepared in DMSO to get the stock solution of 1 mg/ml strength. Compounds 10, 12 and 18 were synthesized according to the procedure described by Dixit et al. and each compound was made to strength of 1 mg/ml stock solution in DMSO. The stock solutions were diluted on the day of experiment to get the desired concentrations for each compound. The highest amount of DMSO in diluted concentrations was 0.125%, and had no effect on parasite growth.
In each combination assay, two compounds (Compound A, artemisinin and Compound B, a fluoroquinolone derivative or norfloxacin) were combined in four fixed ratios (4:1, 3:2, 2:3, and 1:4).
Compound dilutions of each combination solution were made in sterile, flat-bottomed, 96-well tissue culture plates as described by Fivelman et al.. Six times two-fold serial dilution was done for each combination in triplicate. Each well contained a total volume of 200 μl of complete culture medium with or without compound and pre-synchronized infected red blood cells (1% parasitemia at 2.5% haematocrit). Control cultures (without compound) were maintained on the same plate in triplicate. Two 96-well plates (for six combinations) were used for each combination experiment. The plates were stacked in a CO2 incubator and incubated at 37°C for 48 hours.
After 48-hour incubation, thin blood smear slides were prepared, air dried, methanol fixed, and stained in Giemsa solution for 40 min. After staining, slides were removed from coupling jar, washed in running tap water and air dried. The Giemsa-stained slides were examined for counting the number of parasites in random adjacent microscopic fields, equivalent to about 4,000 erythrocytes at 1,000 × magnification. Per cent parasitemia was calculated. Reproducibility of counts was checked by two other readers to maintain the quality control.
For each combination assay, IC50 was calculated from two sets of concentration response graphs, each containing compound alone curve and four combination curves.
ƩFIC <1 represents synergism, ƩFIC > = 1 and <2 represents additive interaction, ƩFIC > = 2 and <4 represents slight antagonism while ƩFIC > = 4 represents marked antagonism.

[2] = cited from earlier work
[3] = test system: Plasmodium berghei ANKA; assay: Peters' four-day suppressive test in BALB/c mice; type: in vivo; settings: ip; for Mean ED50 ± SE: once daily days 0 to 3, BALB/c mice, n = 5
Source text: Evaluation of the curative potential of the fluoroquinolone derivatives was done using the method described by Ryley and Peters, 1970 (rodent malaria four-day suppressive test; Peters’ four-day suppressive test). Rodent malaria parasite Plasmodium berghei ANKA was used.
[…] BALB/c inbred albino mice (25–30 g) of the male sex were obtained from the Animal Facility Centre of the Department of Zoology, University of Delhi. The animals were fed ad libitum with standard feed and had free access to water. They were maintained under standard conditions of humidity, temperature (25°C) and 12 hours light/darkness cycles. The animals were acclimatized for two weeks before the commencement of the study and were ensured to exclude all zoonotic agents.
Day 0: Heparinized blood was withdrawn from an infected donor mouse with approximately 25-30% parasitemia, and diluted in 1x PBS to 10^8 parasitized erythrocytes per mL. An aliquot of 0.2 mL (=2 × 10^7 parasitized erythrocytes) of this suspension was injected intraperitoneally (ip) into experimental groups of five mice each. One to three hours post-infection, the experimental groups were treated with varying doses of each of the test compounds (0.5, 1, 10, 25 mg/kg BW) by the ip route. Each compound was made to strength of 5 mg/ml stock solution in 10% DMSO and administered according to desired concentration and individual body weight. Artemisinin was given to the standard drug group and 0.2 mL of normal saline to the negative control group.
Day 1, 2 and 3: 24 hours, 48 hours and 72 hours post-infection, the experimental groups of mice were treated again with the same dose and by the same route as on day 0.
Day 4: 24 hours after the last treatment (i.e., 96 hours post-infection), blood was drawn from the tail region of mice and smears were prepared. […] Differences in parasitemia percentage between treated groups and untreated animals were analysed by a one-way ANOVA test using IBM SPSS Statistics 16.0 and differences considered significant if P < 0.05. […] Percentinhibitionactivity=100–Meanparasitemia/control×100
Untreated control mice typically died approximately one week after infection. […] The mean survival time was calculated in comparison to untreated (Normal saline) and standard drug (artemisinin) treated groups. Differences in survival time between treated groups and untreated animals were analysed by Log-rank (Mantel-Cox) test using GraphPad Prism 5 and differences considered significant if P <0.005. Observations concerning adverse effects due to the compounds were recorded.

SMILES: C[C@@H]1CC[C@H]2[C@@H](C)C(=O)O[C@@H]3O[C@@]4(C)CC[C@@H]1[C@]32OO4 [Artemisinin]
- Drug A (Artemisinin) Mean FIC50 ± SE ([1]; ratio A:B 1:4, combined with compound 10): 0.17 ± 0.03
- Drug A (Artemisinin) Mean FIC50 ± SE ([1]; ratio A:B 1:4, combined with compound 12): 0.25 ± 0.004
- Drug A (Artemisinin) Mean FIC50 ± SE ([1]; ratio A:B 1:4, combined with compound 18): 0.22 ± 0.01
- Drug A (Artemisinin) Mean FIC50 ± SE ([1]; ratio A:B 1:4, combined with norfloxacin): 0.14 ± 0.01
- Drug A (Artemisinin) Mean FIC50 ± SE ([1]; ratio A:B 2:3, combined with compound 10): 0.48 ± 0.02
- Drug A (Artemisinin) Mean FIC50 ± SE ([1]; ratio A:B 2:3, combined with compound 12): 0.50 ± 0.02
- Drug A (Artemisinin) Mean FIC50 ± SE ([1]; ratio A:B 2:3, combined with compound 18): 0.49 ± 0.04
- Drug A (Artemisinin) Mean FIC50 ± SE ([1]; ratio A:B 2:3, combined with norfloxacin): 0.66 ± 0.02
- Drug A (Artemisinin) Mean FIC50 ± SE ([1]; ratio A:B 3:2, combined with compound 10): 0.58 ± 0.03
- Drug A (Artemisinin) Mean FIC50 ± SE ([1]; ratio A:B 3:2, combined with compound 12): 0.60 ± 0.03
- Drug A (Artemisinin) Mean FIC50 ± SE ([1]; ratio A:B 3:2, combined with compound 18): 0.55 ± 0.03
- Drug A (Artemisinin) Mean FIC50 ± SE ([1]; ratio A:B 3:2, combined with norfloxacin): 0.29 ± 0.02
- Drug A (Artemisinin) Mean FIC50 ± SE ([1]; ratio A:B 4:1, combined with compound 10): 0.61 ± 0.01
- Drug A (Artemisinin) Mean FIC50 ± SE ([1]; ratio A:B 4:1, combined with compound 12): 0.63 ± 0.03
- Drug A (Artemisinin) Mean FIC50 ± SE ([1]; ratio A:B 4:1, combined with compound 18): 0.58 ± 0.02
- Drug A (Artemisinin) Mean FIC50 ± SE ([1]; ratio A:B 4:1, combined with norfloxacin): 0.91 ± 0.03
- Drug A (Artemisinin) Mean FIC50 ± SE ([1]; ratio A:B 5:0, assay with compound 10): 1.02 ± 0.04
- Drug A (Artemisinin) Mean FIC50 ± SE ([1]; ratio A:B 5:0, assay with compound 12): 1.0 ± 0.02
- Drug A (Artemisinin) Mean FIC50 ± SE ([1]; ratio A:B 5:0, assay with compound 18): 0.97 ± 0.07
- Drug A (Artemisinin) Mean FIC50 ± SE ([1]; ratio A:B 5:0, assay with norfloxacin): 1.13 ± 0.06
- half life [2]: < one
- Mean ED50 ± SE [3]: 1.72 ± 0.15 mg/kg BW
- Mean ED50 ± SE ([3]; listed as artemisinin): 1.72 mg/kg BW
- survival of treated mice ([3]; varying doses 0.5-25 mg/kg BW, observed 30 days): survived beyond two weeks
